According to US20250282770A1, “BIOLUMINESCENT PROBES TO TRACK STEM CELLS IN VIVO” (THE BOARD OF TRUSTEES OF THE UNIVERSITY OF ILLINOIS, priority 2024, published 2025):

Columns and labels:
[1] = test system: mesenchymal stem cells (MSCs); assay: AlDeLuc in mesenchymal stem cells, lysed and treated with luciferase; format: cell-based; settings: 20 μM, one hour, ~2.5×10^5 MSCs, lysed
Method: Testing commenced by incubating MSCs with AlDeLuc (20 μM). After one hour, the cells were lysed, treated with luciferase, and imaged. […] Moreover, we wanted to allow for any oxidized N,N-diethyl luciferin substrate to accumulate for the highest possible signal.

β-Galactosidase = biological target: T1, β-Galactosidase (Escherichia coli, UniProt P00722); assay: Stability of AlDeLuc to β-Galactosidase; format: biochemical; settings: 10 μM; 1 unit of β-Gal
T1 construct: purchased Millipore-Sigma Aldrich
Method: Exploring the Stability of AlDeLuc to β-Galactosidase. The stability of AlDeLuc (10 μM) against β-Galactosidase (β-gal) was determined using a black 96-well plate and monitored using the IVIS imaging system. In a 96-well plate was added PBS (pH 7.4), β-gal (1 unit), and AlDeLuc. As a positive control to the same plate, was added PBS (pH 7.4), ALDH1A1 (0.4 μM), NAD^+ (1 mM), and acid activated AlDeLuc. Immediately after AlDeLuc was added, ATP-MgSO4 (45 μL, prepared by mixing 17.78 mM ATP-Mg and 35.56 mM MgSO4 in a 1:1 ratio in PBS buffer) and luciferase (5 μL, 1 mg/mL in PBS containing 10% glycerol) were administered to initiate bioluminescence production. Light was collected promptly after mixing, and the total luminescent counts were measured for both conditions. The total volume of each well was 200 μL with 0.1% DMSO. All data reported as the mean±standard deviation (n=4).

ALDH1A1 activity = assay: High-fat diet inflammatory model, orthotopic 4T1-Luc tumors, AlDeLuc imaging after L-NMMA; format: in vivo, BALB/c mice; settings: control group (water gavage), AlDeLuc 0.55 mg/kg, 40 min
Method: Finally, to examine how NO influences ALDH1A1 activity in vivo we placed BALB/c mice (female, 5-7 weeks old) on a high-fat diet for 40 weeks to induce an inflammatory response through elevated NO production. This period consists of a ˜20-week priming period prior to inoculation of the animals with 4T1-Luc cells at the mammary fat pad. At this point, the mice were randomized into two groups. The treatment group was administered L-NMMA (50 mg/kg), whereas the control group received water via oral gavage for 20 days. The day after the final treatment, mice from both conditions were treated systemically with AlDeLuc, and the bioluminescence was monitored (FIG. 5e). […] At the completion of the diet study, animals were sacrificed, and their tumors were excised for further immunohistochemical analysis.
Generation of an Orthotopic 4T1-Luc Breast Cancer Model for Diet Studies. Female BALB/c mice (˜6 weeks old) were inoculated with 4T1-Luc cells (50 μL of 1×10^5 cells in 1:1 v/v serum-free RPMI 1640 media and Matrigel) via subcutaneous injections into the mammary fat pad. Tumor volumes were measured using the caliper method every three days. Body weight was measured daily over the course of the experiment.

[2] = test system: 4T1 murine mammary carcinoma cells; assay: AlDeLuc activation in 4T1 cells, lysate bioluminescence; format: cell-based; settings: 4T1 cell lysates; 100 μM, 60 minutes
Method: Validation of ALDH-Mediated Activation of AlDeLuc in Murine Breast Cancer Cells. 4T1 cells were cultured in T75 culture flasks. After two days, cells had become ˜90% confluent. An aliquot of RPMI 1640 media (1 mL) was removed from each flask and replaced with either DEAB ([…], 0.5% DMSO) or vehicle (0.5% DMSO). After incubation for one hour, the solutions were aspirated, washed with PBS, and resuspended in fresh RPMI 1640 media (9 mL). Each flask was then incubated with the AlDeLuc (100 μM) and DEAB (500 μM) or AlDeLuc (100 μM) and vehicle (DMSO), each with a final concentration of 1% DMSO. After 60 minutes, this solution was aspirated, washed with fresh PBS, and detached from the culture flasks. The cells were then transferred to a 15 mL centrifuge tube and pelleted at 1000 rpm for 5 minutes at room temp. The cells were resuspended in PBS along with 10% protease inhibitor solution (1 protease inhibitor mini tablet per 10 mL of PBS, Pierce, Thermo Fisher Scientific) and sonicated on ice for 2.5 minutes (pulse 01, 01, 40%). The cell debris was removed via centrifugation and the supernatant was plated ([…]) into a 96-well plate (n=4 for each condition). […] ROIs were drawn around each well and the signal intensity was quantified using the Living Image Analysis software.

[3] = Stability in PBS or serum-containing media; format: physicochemical

T1 sequence (P00722 2-1024): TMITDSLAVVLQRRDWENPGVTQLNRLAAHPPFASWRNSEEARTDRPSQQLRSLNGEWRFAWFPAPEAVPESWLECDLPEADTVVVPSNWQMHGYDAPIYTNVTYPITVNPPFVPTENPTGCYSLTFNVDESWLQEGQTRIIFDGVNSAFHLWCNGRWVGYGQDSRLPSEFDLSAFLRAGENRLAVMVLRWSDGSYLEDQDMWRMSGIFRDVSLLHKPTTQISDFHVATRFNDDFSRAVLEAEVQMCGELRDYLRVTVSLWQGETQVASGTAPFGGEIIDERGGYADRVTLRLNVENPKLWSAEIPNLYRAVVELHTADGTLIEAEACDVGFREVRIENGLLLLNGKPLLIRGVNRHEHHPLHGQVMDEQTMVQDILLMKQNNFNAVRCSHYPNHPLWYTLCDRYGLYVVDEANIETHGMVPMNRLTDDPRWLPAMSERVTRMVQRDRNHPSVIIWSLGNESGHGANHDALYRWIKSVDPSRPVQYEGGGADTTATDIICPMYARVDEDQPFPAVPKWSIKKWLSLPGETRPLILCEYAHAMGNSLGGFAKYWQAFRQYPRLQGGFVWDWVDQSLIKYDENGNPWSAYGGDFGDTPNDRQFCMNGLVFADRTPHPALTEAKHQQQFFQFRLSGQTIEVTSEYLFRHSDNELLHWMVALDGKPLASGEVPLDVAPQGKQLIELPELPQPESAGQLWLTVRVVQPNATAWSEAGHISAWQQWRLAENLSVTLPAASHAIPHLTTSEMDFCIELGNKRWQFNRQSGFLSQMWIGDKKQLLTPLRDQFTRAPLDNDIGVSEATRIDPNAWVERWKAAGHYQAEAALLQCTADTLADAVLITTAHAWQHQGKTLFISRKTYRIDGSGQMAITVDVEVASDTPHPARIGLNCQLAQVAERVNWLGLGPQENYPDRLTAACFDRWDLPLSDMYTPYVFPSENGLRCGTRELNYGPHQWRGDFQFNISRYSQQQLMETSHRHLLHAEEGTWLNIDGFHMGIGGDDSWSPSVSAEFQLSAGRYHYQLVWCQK

With `CCN(CC)c1ccc2nc(C3=N[C@@H](C(OC)OC)CS3)sc2c1` [AlDeLuc, (S)-2-(4-(dimethoxymethyl)-4,5-dihydrothiazol-2-yl)-N,N-diethylbenzo[d]thiazol-6-amine] the “bioluminescence of treated cells” value [1] was “indistinguishable from blank controls”, the stability of acetal (β-Galactosidase) was “completely stable” and the total luminescent counts (ALDH1A1 activity) was 1.7±0.8×10^4. The “increase in bioluminescence compared to blank controls” value [2] was 42 fold, the hydrolysis ([3]; PBS) was “does not hydrolyze” and the hydrolysis ([3]; serum-containing media) was “does not hydrolyze”.
